In patent publication US6737383B1, “Herbicidal oxadiazolidines” (priority 1999, dated 2004):

Columns and labels:
[1] = tested on: soybean; test: Test B pre/postemergence soybean; format: in vivo, Glycine max
Summary of the method: (§1)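 Herbicidal effect was estimated by eye on a ten-point control scale after plants spent twelve to sixteen days in a greenhouse following soil or foliar treatment. Foliar sprays targeted plants at one to four leaves; all doses were formulated in a non-phytotoxic solvent with surfactant.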

[2] = tested on: surinam grass; test: Test B pre/postemergence surinam grass; format: in vivo, Brachiaria decumbens
Summary of the method: as §1

[3] = tested on: bedstraw; test: Test B pre/postemergence bedstraw; format: in vivo, Galium aparine; details: Postemergence, Rate 250 g/ha; scale 0 to 10, 0 is no effect, 10 is complete control
Summary of the method: as §1

[4] = tested on: sugar beet; test: Test B pre/postemergence sugar beet; format: in vivo, Beta vulgaris
Summary of the method: as §1

[5] = tested on: cocklebur; test: Test B pre/postemergence cocklebur; format: in vivo, Xanthium strumarium
Summary of the method: as §1

[6] = tested on: morningglory; test: Test B pre/postemergence morningglory; format: in vivo, Ipomoea hederacea
Summary of the method: as §1

[7] = tested on: corn; test: Test B pre/postemergence corn; format: in vivo, Zea mays
Summary of the method: as §1

[8] = tested on: giant foxtail; test: Test B pre/postemergence giant foxtail; format: in vivo, Setaria faberii
Summary of the method: as §1

[9] = tested on: pigweed; test: Test B pre/postemergence pigweed; format: in vivo, Amaranthus retroflexus
Summary of the method: as §1

[10] = tested on: blackgrass; test: Test B pre/postemergence blackgrass; format: in vivo, Alopecurus myosuroides
Summary of the method: as §1

[11] = tested on: velvetleaf; test: Test B pre/postemergence velvetleaf; format: in vivo, Abutilon theophrasti
Summary of the method: as §1

[12] = tested on: wild oat; test: Test B pre/postemergence wild oat; format: in vivo, Avena fatua
Summary of the method: as §1

[13] = tested on: bamyardgrass; test: Test B flood test barnyardgrass; format: in vivo, Echinochloa crus-galli; details: Pre-emergence
Summary of the method: (§2)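 Read-out is a visual response score from 0 (no effect) to 10 (complete control), assigned by comparison with untreated controls. Treatment was applied at the 2-leaf stage, and plants stayed in the greenhouse for twelve to sixteen days before scoring.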

[14] = tested on: wheat; test: Test B pre/postemergence wheat; format: in vivo, Triticum aestivum
Summary of the method: as §1

[15] = tested on: rice; test: Test B flood test rice; format: in vivo, Oryza sativa; details: Pre-emergence
Summary of the method: as §2

[16] = tested on: crabgrass; test: Test B pre/postemergence crabgrass; format: in vivo, Digitaria sanguinalis
Summary of the method: as §1

[17] = tested on: rape; test: Test B pre/postemergence rape; format: in vivo, Brassica napus
Summary of the method: as §1

[18] = tested on: smallflower flatsedge; test: Test B flood test smallflower flatsedge; format: in vivo, Cyperus difformis; details: Pre-emergence
Summary of the method: as §2

[19] = tested on: duck salad; test: Test B flood test duck salad; format: in vivo, Heteranthera limosa; details: Pre-emergence
Summary of the method: as §2

[20] = tested on: purple nutsedge; test: Test B pre/postemergence purple nutsedge; format: in vivo, Cyperus rotundus
Summary of the method: as §1

[21] = Postemergence, Rate 250 g/ha, scale 0 to 10, 0 is no effect, 10 is complete control
[22] = Postemergence, Rate 500 g/ha, scale of 0 to 10 where 0 is no effect and 10 is complete control
[23] = Preemergence, Rate 62 g/ha, scale 0 to 10 (0 no effect, 10 complete control)
[24] = Preemergence, Rate 250 g/ha, scale 0 to 10, 0 is no effect, 10 is complete control
[25] = Preemergence, Rate 500 g/ha, scale of 0 to 10 where 0 is no effect and 10 is complete control
[26] = Rate 62 g/ha, Postemergence, scale of 0 to 10 where 0 is no effect and 10 is complete control
[27] = Postemergence, Rate 125 g/ha, scale 0 to 10, 0 is no effect, 10 is complete control
[28] = Preemergence, Rate 125 g/ha, scale of 0 to 10 where 0 is no effect and 10 is complete control
[29] = Preemergence, Rate 250 g/ha, scale of 0 to 10 where 0 is no effect and 10 is complete control
[30] = Rate 62 g/ha, flood test species, visual evaluation after twelve to sixteen days
[31] = Rate 250 g/ha, flood-test species, scale 0 to 10, 0 is no effect, 10 is complete control
[32] = Rate 500 g/ha, flood test species, scale 0 to 10 (0 no effect, 10 complete control)

## CC(C)Cn1c(=O)on(C(=O)N(c2ccc(F)cc2F)C(C)C)c1=O [Compound 394]
[1]; [21]
  Plant response rating, Soybean: 5
[1]; [22]
  Soybean plant response rating: 5
[1]; [23]
  Plant response rating, Soybean: 0
[1]; [24]
  Soybean plant response rating: 1
[1]; [25]
  Soybean plant response rating: 2
[1]; [26]
  Soybean plant response rating: 3
[2]; [27]
  Plant response rating, B. signalgrass: 1
[2]; [21]
  Plant response rating, B. signalgrass: 2
[2]; [22]
  B. signalgrass plant response rating: 9
[2]; [23]
  Plant response rating, B. signalgrass: 2
[2]; [28]
  Plant response rating, B. signalgrass: 5
[2]; [29]
  B. signalgrass plant response rating: 8
[2]; [25]
  B. signalgrass plant response rating: 10
[2]; [26]
  B. signalgrass plant response rating: 0
[3]
  Plant response rating, Bedstraw: 5
[4]; [21]
  Plant response rating, Sugarbeets: 1
[4]; [22]
  Sugarbeets plant response rating: 5
[4]; [23]
  Plant response rating, Sugarbeets: 0
[4]; [28]
  Plant response rating, Sugarbeets: 3
[4]; [24]
  Sugarbeets plant response rating: 4
[4]; [25]
  Sugarbeets plant response rating: 7
[4]; [26]
  Sugarbeets plant response rating: 0
[5]; [27]
  Plant response rating, Cocklebur: 0
[5]; [21]
  Plant response rating, Cocklebur: 0
[5]; [22]
  Cocklebur plant response rating: 4
[5]; [23]
  Plant response rating, Cocklebur: 0
[5]; [28]
  Plant response rating, Cocklebur: 0
[5]; [24]
  Cocklebur plant response rating: 0
[5]; [25]
  Cocklebur plant response rating: 0
[5]; [26]
  Cocklebur plant response rating: 0
[6]; [21]
  Plant response rating, Morningglory: 6
[6]; [22]
  Morningglory plant response rating: 7
[6]; [23]
  Plant response rating, Morningglory: 0
[6]; [28]
  Plant response rating, Morningglory: 0
[6]; [24]
  Morningglory plant response rating: 0
[6]; [25]
  Morningglory plant response rating: 2
[6]; [26]
  Morningglory plant response rating: 0
[7]; [27]
  Plant response rating, Corn: 0
[7]; [21]
  Plant response rating, Corn: 0
[7]; [22]
  Corn plant response rating: 0
[7]; [23]
  Plant response rating, Corn: 0
[7]; [28]
  Plant response rating, Corn: 0
[7]; [24]
  Corn plant response rating: 3
[7]; [25]
  Corn plant response rating: 5
[7]; [26]
  Corn plant response rating: 0
[8]; [27]
  Plant response rating, Giant foxtail: 7
[8]; [21]
  Plant response rating, Giant foxtail: 8
[8]; [22]
  Giant foxtail plant response rating: 9
[8]; [23]
  Plant response rating, Giant foxtail: 9
[8]; [28]
  Plant response rating, Giant foxtail: 10
[8]; [24]
  Giant foxtail plant response rating: 10
[8]; [25]
  Giant foxtail plant response rating: 10
[9]; [21]
  Plant response rating, Redroot pigweed: 2
[9]; [22]
  Redroot pigweed plant response rating: 7
[9]; [23]
  Plant response rating, Redroot pigweed: 1
[9]; [28]
  Plant response rating, Redroot pigweed: 2
[9]; [24]
  Redroot pigweed plant response rating: Redroot pigwee 6
[9]; [25]
  Redroot pigweed plant response rating: 10
[9]; [26]
  Redroot pigweed plant response rating: 0
[10]; [21]
  Plant response rating, Blackgrass: 9
[10]; [23]
  Plant response rating, Blackgrass: 7
[10]; [28]
  Plant response rating, Blackgrass: 8
[10]; [29]
  Blackgrass plant response rating: 10
[10]; [25]
  Blackgrass plant response rating: 10
[10]; [26]
  Blackgrass plant response rating: 2
[11]; [21]
  Plant response rating, Velvetleaf: 0
[11]; [22]
  Velvetleaf plant response rating: 3
[11]; [23]
  Plant response rating, Velvetleaf: 1
[11]; [28]
  Plant response rating, Velvetleaf: 5
[11]; [24]
  Velvetleaf plant response rating: 7
[11]; [25]
  Velvetleaf plant response rating: 7
[11]; [26]
  Velvetleaf plant response rating: 0
[12]; [22]
  Wild oats plant response rating: 6
[12]; [23]
  Plant response rating, Wild oats: 4
[12]; [28]
  Plant response rating, Wild oats: 6
[12]; [24]
  Wild oats plant response rating: 10
[12]; [25]
  Wild oats plant response rating: 10
[12]; [26]
  Wild oats plant response rating: 0
[13]; [30]
  Plant response rating, Barnyardgrass (0 to 10 scale, 0 is no effect, 10 is complete control): 0
[13]; [31]
  Barnyardgrass plant response rating: 6
[13]; [32]
  Barnyardgrass plant response rating: 8
[14]; [22]
  Wheat plant response rating: 4
[14]; [23]
  Plant response rating, Wheat: 0
[14]; [28]
  Plant response rating, Wheat: 1
[14]; [24]
  Wheat plant response rating: 6
[14]; [25]
  Wheat plant response rating: 9
[14]; [26]
  Wheat plant response rating: 0
[15]; [30]
  Plant response rating, Rice (0 to 10 scale, 0 is no effect, 10 is complete control): 1
[15]; [31]
  Rice plant response rating: 1
[15]; [32]
  Rice plant response rating: 1
[16]; [27]
  Plant response rating, Crabgrass: 2
[16]; [21]
  Plant response rating, Crabgrass: 8
[16]; [22]
  Crabgrass plant response rating: 9
[16]; [23]
  Plant response rating, Crabgrass: 9
[16]; [28]
  Plant response rating, Crabgrass: 10
[16]; [24]
  Crabgrass plant response rating: 10
[16]; [25]
  Crabgrass plant response rating: 10
[16]; [26]
  Crabgrass plant response rating: 2
[17]; [21]
  Plant response rating, Rape: 0
[17]; [23]
  Plant response rating, Rape: 0
[17]; [28]
  Plant response rating, Rape: 2
[17]; [24]
  Rape plant response rating: 7
[17]; [25]
  Rape plant response rating: 9
[17]; [26]
  Rape plant response rating: 0
[18]; [30]
  Plant response rating, S. Flatsedge (0 to 10 scale, 0 is no effect, 10 is complete control): 4
[18]; [31]
  S. Flatsedge plant response rating: 8
[18]; [32]
  S. Flatsedge plant response rating: 8
[19]; [30]
  Plant response rating, Ducksalad (0 to 10 scale, 0 is no effect, 10 is complete control): 0
[19]; [31]
  Ducksalad plant response rating: 3
[19]; [32]
  Ducksalad plant response rating: 3
[20]; [21]
  Plant response rating, Nutsedge: 0
[20]; [23]
  Plant response rating, Nutsedge: 0
[20]; [28]
  Plant response rating, Nutsedge: 0
[20]; [24]
  Nutsedge plant response rating: 2
[20]; [25]
  Nutsedge plant response rating: 6
[20]; [26]
  Nutsedge plant response rating: 0
